The results in this text go back to US20250360113A1, “ADMINISTRATION OF DHB TO INCREASE BENEFIT OF LOSING WEIGHT OF INTERMITTENT FASTING” (NANJING NUTRABUILDING BIO-TECH CO., LTD., priority 2023, published 2025).

Common to all, as to format: in vivo, C57BL/6 male mice
Test [1] can be described thus: Serum insulin and leptin by ELISA at end of treatment. The following applies: HFD obese mice. On the procedure: (§1) 50 C57BL/6 male mice aged about 8 weeks, are randomly assigned to five study groups (GA, GB1, GB2, GB3, GB4) of ten mice each (one cage, n=5 per condition). Mice were maintained in a pathogen free condition under a strict 12 h light/dark cycle (0600/1800 h) with 12-15 cycles/hour of air change. Mice were provided with access to respective feed and water ad libitum as per experimental conditions. Mice were housed under controlled laboratory conditions of temperature and humidity at 23±2° C. and 50±10% RH, respectively. Each study group consisted of ten animals, and treatment details of the individual study groups are given below: • Group A (GA, NC): Normal mice, maintained on normal diet (standard chow, 12% calories from fat; 23% calories from protein and 65% calories from carbohydrates) for 8 weeks, receiving neither EODF nor DHB treatment. • Group B1 (GB1): Obese mice, maintained on high fat diet (HFD, 60% calories from fat, 20% calories from protein, 20% calories from carbohydrate) for 8 weeks, receiving neither EODF nor DHB treatment. • Group B2 (GB2): Obese mice, maintained on HFD for 8 weeks, receiving only EODF and no DHB treatment. • Group B3 (GB3): Obese mice, maintained on HFD for 8 weeks, receiving only DHB treatment and no EODF. • Group B4 (GB4): Obese mice, maintained on HFD for 8 weeks, receiving DHB treatment and EODF combination. DHB was administered daily via intragastric injection (i.g.) according to a level of 70 mg/kg body weight. Mice not receiving DHB were given orally with ultrapure water. Serum levels of insulin and leptin were determined at the end of the treatment period by standard ELISA methods. Since one key feature of obesity is the development of insulin and leptin resistance resulting in an elevation of the circulating levels of these two hormones as a consequence of compensatory physiological responses to insulin and leptin insensitivity, thus leptin is one of the major adipocytokines associated with maintaining glucose homeostasis.
Background: ELISA stands for enzyme-linked immunosorbent assay.

Test [2] is described as follows: Plasma TCHO, TG, LDL, VLDL measured with kits at end of study. The following applies: HFD obese mice, DHB 70 mg/kg i.g. daily with or without EODF vs no DHB. On the procedure: as §1, with “At” for “Serum levels of insulin and leptin were determined at”, “study blood was collected from all test groups and a various clinical parameter: plasma total cholesterol (TCHO), triglyceride (TG), low density lipoprotein (LDL), very low-density lipoprotein (VLDL) were measured using corresponding kits according to” for “treatment period by standard ELISA methods. Since one key feature of obesity is”, “manufacturers' instructions.” for “development of insulin and leptin resistance resulting in an elevation of the circulating levels of these two hormones as a consequence of compensatory physiological responses to insulin and leptin insensitivity, thus leptin is one of the major adipocytokines associated with maintaining glucose homeostasis.”

Another test deals with ADRB3. In words: mRNA levels of ADRB3 from inguinal WAT by qRT-PCR. The following applies: HFD obese mice. On the procedure:
as §1, with “The mRNA” for “Serum”, “ADRB3 protein from inguinal WAT” for “insulin and leptin”, “determined” for “determined at the end of the treatment period”, “qRT-PCR.” for “standard ELISA methods. Since one key feature of obesity is the development of insulin and leptin resistance resulting in an elevation of the circulating levels of these two hormones as a consequence of compensatory physiological responses to insulin and leptin insensitivity, thus leptin is one of the major adipocytokines associated with maintaining glucose homeostasis.”

Setting [3] is: DHB + EODF combination vs EODF only.
[4] abbreviates: DHB 70 mg/kg i.g. daily with or without EODF vs no DHB.

Each structure is given as a SMILES string.

As to `COc1ccc2c(c1OC)CN1CCc3cc4c(cc3C1=C2)OCO4` [DHB, Dihydroberberine], in test [1] (DHB 70 mg/kg i.g. daily with or without EODF vs no DHB, FIG. 9), the “insulin resistance (serum levels of insulin)” value was “improved”. The “leptin resistance (serum levels of leptin)” value in test [1] (DHB 70 mg/kg i.g. daily with or without EODF vs no DHB, FIG. 10) is listed as “improved”. Further, in test [1] (setting [3]), the improving insulin resistance result is on record as “greater effects” and the improving leptin resistance entry was “greater effects”. In addition, the TG result in test [2] (FIG. 5) is on record as “lower levels”. Moreover, the TCHO result in test [2] (FIG. 6) is “lower levels”. The LDL result in test [2] (FIG. 7) was “lower levels”. Also, in test [2] (FIG. 8), the VLDL entry was “lower levels”. Also, in the test on ADRB3 (setting [4]), the “ADRB3 abundance (mRNA, inguinal WAT)” value was “increasing” and the “lipolysis specifically in WAT” value was “upregulated”. Also, the “triggering lipolysis specifically in WAT” value with ADRB3 (setting [3]) is on record as “greater effects”.
